One series deals with Slc:ICR mice. In words: Acute toxicity test in mice (LD50, Miller-Tainter method). The series is classed as in vivo. The settings on record: intraperitoneal, Slc:ICR mice (male), death rate on the 14th day. The procedure: Platinum complexes to be tested was administered intraperitoneally to Slc:ICR mice (male, 5 weeks old, 6 mice/group). Each complex was used in the form of a solution or suspension in a 0.05% "Tween 80" in saline. The LD50 value was calculated by the Miller-Tainter method from the death rate on the 14th day from the date of the administration.

Series [1] has as its system L1210 murine leukemia cells. In words: Antitumor activity against L1210 leukemia in mice. The series is classed as in vivo, CDF1 mice. The note with it: for Survival days (mean ± SD) / T/C (%): given on 1st, 5th and 9th days after tumor inoculation; for Survival rate: number of 30 days survival mice / group. The procedure:
L1210 murine leukemia cells which were subcultured in DBA/2 mouse were inoculated intraperitoneally into CDF1 mice at 10^5 cells/mouse. Each experimental group was composed of 6-10 mice (male, 6-weeks old). Each test compound was administered three times, i.e., on the 1st, 5th and 9th days after tumor inoculation. […] Each compound was dissolved or suspended in 0.05% "Tween 80" solution and administered in mice.

Values joined by “and” are separate entries in the source; they are usually repeats but may differ in a detail not shown here. Equal entries are not always repeated. Where only a bound is given, the exact number is not on record here.

In turn, `COCCOCC(=O)[O][Pt][O]C(=O)COCCOC.NC1CCCCC1N` [XXVII-1, Bis(methoxyethoxymethylcarboxylato)(trans-ℓ-dach)-platinum(II)] had an LD50 values in the series on Slc:ICR mice of 50 mg/kg.
In the series on Slc:ICR mice, `NC1CCCCC1N.O=C([O-])CCc1ccc(O)cc1.O=C([O-])CCc1ccc(O)cc1.[Pt+2]` [XXXIV-1, Bis(3-(4-hydroxyphenyl)propionato)(trans-ℓ-dach)-platinum(II)] showed an LD50 values of 90 mg/kg.
Regarding `CC1(C)CC(=O)C=C(C(=O)[O-])O1.CC1(C)CC(=O)C=C(C(=O)[O-])O1.NC1CCCCC1N.[Pt+2]` [XXV-1, bis(3,4-dihydro-2,2-dimethyl-4-oxo-2H-pyrane-6-carboxylato) (trans-k-dach)platinum(II)], the LD50 values in the series with Slc:ICR mice is 192 mg/kg.
In turn, `O=C([O][Pt]1([O]C(=O)c2ccc(N3C(=O)C=CC3=O)cc2)[NH]C2CCCCC2[NH]1)c1ccc(N2C(=O)C=CC2=O)cc1` (stereo not drawn) [XXVIII-1, Bis[N-(4-carboxyphenyl)maleimido](trans-ℓ-dach)-platinum(II)] yielded an LD50 values in the series on Slc:ICR mice of 70 mg/kg.
As for `NC1CCCCC1N.O=C([O-])c1ccc(=O)oc1.O=C([O-])c1ccc(=O)oc1.[Pt+2]` [XXII-1, bis(2-pyrone-5-carboxylato)(trans-ℓ-dach)platinum(II)], the “Survival days (mean ± SD)” value was 9.0 ± 0.9 days and 11.3 ± 0.8 days in series [1] (Dose 1 mg/kg, 1 mg/kg); 15.2 ± 3.1 days and 17.8 ± 2.8 days in series [1] (Dose 50 mg/kg, 50 mg/kg); 20.7 ± 7.2 days and 12.3 ± 2.7 days in series [1] (Dose 100 mg/kg, 100 mg/kg). The “T/C (%)” value in series [1] (Dose 1 mg/kg, 1 mg/kg) is 108% and 140%; in series [1] (Dose 50 mg/kg, 50 mg/kg), 183% and 220%; in series [1] (Dose 100 mg/kg, 100 mg/kg), 249% and 152%. Besides, the Survival rate in series [1] (Dose 1 mg/kg) is 0/6; in series [1] (Dose 10 mg/kg, 10 mg/kg), 0/6 and 2/6; in series [1] (Dose 25 mg/kg, 25 mg/kg), 0/6 and 3/6; in series [1] (Dose 50 mg/kg) it was 0/6; in series [1] (Dose 100 mg/kg, 100 mg/kg), 1/6 and 0/6; in series [1] (Dose 200 mg/kg), 0/6. In the series on Slc:ICR mice, this molecule showed an LD50 values of over 200 mg/kg.
Regarding `CCOC(=O)CNC(=O)C=CC(=O)[O-].NC1CCCCC1N.[OH-].[Pt+2]` [XXIX-1, N-(ethoxycarbonylmethyl)maleamido-hydroxo(trans-ℓ- dach)platinum(II)], in the series on Slc:ICR mice, the LD50 values is recorded as over 200 mg/kg.
`O=C(C=Cc1ccc(C(F)(F)F)cc1)[O][Pt]1([OH])[NH]C2CCCCC2[NH]1` (stereo not drawn) [XXXI-5, β-(4-trifluourmethylphenyl)acrylate-hydroxo(trans-ℓ-dach)platinum(II)] came in with an LD50 values with Slc:ICR mice of over 200 mg/kg.
As to `N.N.[Cl][Pt][Cl]` [C D D P, cis-diamminedichloro platinum(II), reference compound], the “Survival days (mean ± SD)” value is 18.9 ± 5.8 days in series [1] (Dose 0.5 mg/kg); 14.5 ± 2.5 days and 15.5 ± 1.4 days and 13.0 ± 3.1 days and 14.8 ± 2.7 days in series [1] (Dose 2.5 mg/kg, 2.5 mg/kg); 16.3 ± 1.2 days and 18.2 ± 0.4 days and 18.8 ± 4.3 days in series [1] (Dose 5 mg/kg, 5 mg/kg); 19.0 ± 8.7 days and 19.2 ± 3.0 days and 20.2 ± 4.8 days and 18.7 ± 3.1 days in series [1] (Dose 7.5 mg/kg, 7.5 mg/kg). Further, the “T/C (%)” value is 225% in series [1] (Dose 0.5 mg/kg); 175% and 191% and 181% in series [1] (Dose 2.5 mg/kg, 2.5 mg/kg); 201% and 214% and 232% in series [1] (Dose 5 mg/kg, 5 mg/kg); 229% and 237% and 238% and 231% in series [1] (Dose 7.5 mg/kg, 7.5 mg/kg). Further, the Survival rate is 0/6 in series [1] (Dose 0.5 mg/kg); 0/6 in series [1] (Dose 2.5 mg/kg); 0/6 in series [1] (Dose 5 mg/kg); 1/6 and 0/6 in series [1] (Dose 7.5 mg/kg, 7.5 mg/kg).
The molecule “2-Furanacrylate-hydroxo(trans-i-dach)platinum(II) [XXXI-3]” yielded an LD50 values in the series with Slc:ICR mice of over 200 mg/kg.
Regarding `NC1CCCCC1N.O=C([O][Pt][O]C(=O)C1(O)CC(O)C(O)C(O)C1)C1(O)CC(O)C(O)C(O)C1` [XXXII-1, Bis(lR,3R,4R,5R-tetrahydroxycyclohexanecarboxylato)-(trans-ℓ-dach)platinum(II)], the LD50 values in the series on Slc:ICR mice is on record as over 200 mg/kg.
In the series on Slc:ICR mice, `CC1(C(=O)[O][Pt][O]C(=O)C2(C)CCC3(C)CCC4(C)C(=CC(=O)C5C6(C)CCC(O)C(C)(C)C6CCC54C)C3C2)CCC2(C)CCC3(C)C(=CC(=O)C4C5(C)CCC(O)C(C)(C)C5CCC43C)C2C1.NC1CCCCC1N.O.O.O.O` (stereo not drawn) [XXXV-1, Bis(β-glycyrrhetinato)(trans-ℓ-dach)platinum(II)-tetrahydrate] had an LD50 values of over 150 mg/kg.
The same measure, in the same setting: the result for “2-Propenylacrylate-hydroxo(trans-ℓ-dach)platinum(II) [XXXI-2]” reads over 200 mg/kg.
Consider `NC1CCCCC1N.O=C([O-])C=CC(=O)Nc1cccc(O)c1.[OH-].[Pt+2]` [XXIX-4, N-(3-hydroxyphenyl)maleamido-hydroxo(trans-ℓ-dach)-platinum(II)], for which the LD50 values in the series with Slc:ICR mice is on record as 62 mg/kg.
Consider `NC1CCCCC1N.O=C(CN1C(=O)c2ccccc2C1=O)NCC(=O)[O][Pt][O]C(=O)CNC(=O)CN1C(=O)c2ccccc2C1=O` [XXVI-1, Bis(phthaloylglycylglycinato)(trans-ℓ-dach)-platinum(II)], for which the LD50 values with Slc:ICR mice was over 200 mg/kg.
In the series with Slc:ICR mice, `O=C(C=Cc1ccc(O)cc1)[O][Pt]1([OH])[NH]C2CCCCC2[NH]1` (stereo not drawn) [XXXI-4, β-(4-hydroxyphenyl)acrylate-hydroxo(trans-ℓ-dach)-platinum(II)] came in with an LD50 values of 117 mg/kg.
In the series with Slc:ICR mice, `COC(=O)C(Cc1ccccc1)NC(=O)C=CC(=O)[O-].NC1CCCCC1N.[OH-].[Pt+2]` (stereo not drawn) [XXIX-2, N-(dℓ-2-phenyl-1-methoxycarbonylethyl)maleamido-hydroxo(trans-i-dach)platinum(II)] registered an LD50 values of over 200 mg/kg.
“N-(4-methoxycarbonylphenyl)maleamido-hydroxo(trans-A-dach)platinum(II) [XXIX-3]” gave an LD50 values with Slc:ICR mice of 48 mg/kg.
“Bis(2-propenylacrylate)(trans-ℓ-dach)platinum(II) [XXX-1]” showed an LD50 values with Slc:ICR mice of 77 mg/kg.
For the molecule `N.N.O=C([O-])C1(C(=O)[O-])CCC1.[Pt+2]` [C B D C A, cis-diammine-1,1-cyclobutanedicarboxylate platinum(II), reference compound], the “Survival days (mean ± SD)” value was 8.3 ± 0.5 days in series [1] (Dose 1 mg/kg); 9.3 ± 0.5 days in series [1] (Dose 10 mg/kg); 10.1 ± 1.3 days in series [1] (Dose 25 mg/kg); 13.1 ± 2.3 days in series [1] (Dose 50 mg/kg); 14.1 ± 3.7 days in series [1] (Dose 100 mg/kg); 9.6 ± 0.7 days in series [1] (Dose 200 mg/kg). In addition, the “T/C (%)” value in series [1] (Dose 1 mg/kg) turned out to be 98%; in series [1] (Dose 10 mg/kg), 109%; in series [1] (Dose 25 mg/kg) it was 119%; in series [1] (Dose 50 mg/kg) it was 156%; in series [1] (Dose 100 mg/kg), 166%; in series [1] (Dose 200 mg/kg) it was 113%. Also, the Survival rate in series [1] (Dose 1 mg/kg), in series [1] (Dose 10 mg/kg), in series [1] (Dose 25 mg/kg), in series [1] (Dose 50 mg/kg), in series [1] (Dose 100 mg/kg) and in series [1] (Dose 200 mg/kg) was 0/10 each time.

The values are drawn from EP0345356A1, “PLATINUM COMPLEX AND THERAPEUTIC AGENT FOR MALIGNANT TUMOR” (TORAY INDUSTRIES, INC., priority 1987, dated 1989).
